Experimental data published in ChEMBL document CHEMBL1201862, “PubChem BioAssay data set” (2004).
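Method: 48-hour compound exposure of cells in 96-well plates, five concentrations, linear interpolation of endpoints. GI50 = concentration required for 50% inhibition of growth.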 Active and inactive are the calls of the source. No stated cut-off is given here; in the data, active = GI50 up to about 1.1 µM and inactive = higher.

Columns and labels:
Assay in all cases: DTP human tumour cell line panel, 48 h
IGROV-1 = tested on: IGROV-1
NCI-H522 = tested on: NCI-H522
RXF 393 = tested on: RXF 393
Malme-3M = tested on: Malme-3M
T47D = tested on: T47D
SK-OV-3 = tested on: SK-OV-3
ACHN = tested on: ACHN
SK-MEL-2 = tested on: SK-MEL-2
MCF7 = tested on: MCF7
K562 = tested on: K562
MDA-MB-435 = tested on: MDA-MB-435
HOP-62 = tested on: HOP-62
PC-3 = tested on: PC-3
MDA-MB-231 = tested on: MDA-MB-231
CAKI-1 = tested on: CAKI-1
SF-539 = tested on: SF-539
HCT-15 = tested on: HCT-15
786-0 = tested on: 786-0
CCRF-CEM = tested on: CCRF-CEM
A498 = tested on: A498
HCT-116 = tested on: HCT-116
SNB-19 = tested on: SNB-19
COLO 205 = tested on: COLO 205
MOLT-4 = tested on: MOLT-4
Hs-578T = tested on: Hs-578T
SK-MEL-28 = tested on: SK-MEL-28
DU-145 = tested on: DU-145
HOP-92 = tested on: HOP-92
UACC-62 = tested on: UACC-62
OVCAR-8 = tested on: OVCAR-8
RPMI-8226 = tested on: RPMI-8226
SF-268 = tested on: SF-268
TK-10 = tested on: TK-10
LOX IMVI = tested on: LOX IMVI
SR = tested on: SR
OVCAR-4 = tested on: OVCAR-4
OVCAR-3 = tested on: OVCAR-3
SF-295 = tested on: SF-295
HCC 2998 = tested on: HCC 2998
HL-60 = tested on: HL-60
A549 = tested on: A549
NCI-H23 = tested on: NCI-H23
SW-620 = tested on: SW-620
NCI-H460 = tested on: NCI-H460
HT-29 = tested on: HT-29
OVCAR-5 = tested on: OVCAR-5
SN12C = tested on: SN12C
NCI/ADR-RES = tested on: NCI/ADR-RES
SNB-75 = tested on: SNB-75
EKVX = tested on: EKVX
MDA-N = tested on: MDA-N
NCI-H226 = tested on: NCI-H226
UACC-257 = tested on: UACC-257
SK-MEL-5 = tested on: SK-MEL-5
KM12 = tested on: KM12
U-251 = tested on: U-251
M14 = tested on: M14
BT-549 = tested on: BT-549

## CCN(CC)CCn1ncc2c3c(=O)c4cccnc4n(CCN(CC)CC)c3ccc21
IGROV-1
  GI50: > 10 µM (inactive)
NCI-H522
  GI50: > 10 µM (inactive)
RXF 393
  GI50: > 10 µM (inactive)
Malme-3M
  GI50: > 10 µM (inactive)
T47D
  GI50: > 10 µM (inactive)
SK-OV-3
  GI50: > 10 µM (inactive)
ACHN
  GI50: 5.21 µM (inactive)
SK-MEL-2
  GI50: > 10 µM (inactive)
MCF7
  GI50: 3.22 µM (inactive)
K562
  GI50: > 10 µM (inactive)
MDA-MB-435
  GI50: 6.21 µM (inactive)
HOP-62
  GI50: > 10 µM (inactive)
PC-3
  GI50: > 10 µM (inactive)
MDA-MB-231
  GI50: > 10 µM (inactive)
CAKI-1
  GI50: > 10 µM (inactive)
SF-539
  GI50: 9.27 µM (inactive)
HCT-15
  GI50: 5.25 µM
786-0
  GI50: 5.97 µM (inactive)
CCRF-CEM
  GI50: 4.98 µM (inactive)
A498
  GI50: > 10 µM (inactive)
HCT-116
  GI50: 3.54 µM (inactive)
SNB-19
  GI50: > 10 µM (inactive)
COLO 205
  GI50: 2.32 µM (inactive)
MOLT-4
  GI50: 4.39 µM (inactive)
Hs-578T
  GI50: 8.67 µM (inactive)
SK-MEL-28
  GI50: > 10 µM (inactive)
DU-145
  GI50: > 10 µM (inactive)
HOP-92
  GI50: > 10 µM (inactive)
UACC-62
  GI50: > 10 µM (inactive)
OVCAR-8
  GI50: 7.93 µM (inactive)
RPMI-8226
  GI50: > 10 µM (inactive)
SF-268
  GI50: 7.43 µM (inactive)
TK-10
  GI50: > 10 µM (inactive)
LOX IMVI
  GI50: 5.41 µM (inactive)
SR
  GI50: 6.98 µM (inactive)
OVCAR-4
  GI50: 4.44 µM (inactive)
OVCAR-3
  GI50: 8.11 µM (inactive)
SF-295
  GI50: 7.45 µM (inactive)
HCC 2998
  GI50: > 10 µM (inactive)
HL-60
  GI50: 8.2 µM (inactive)
A549
  GI50: > 10 µM (inactive)
NCI-H23
  GI50: > 10 µM (inactive)
SW-620
  GI50: 3.77 µM (inactive)
NCI-H460
  GI50: 6.18 µM (inactive)
HT-29
  GI50: 3.51 µM (inactive)
OVCAR-5
  GI50: 9.12 µM (inactive)
SN12C
  GI50: 8.87 µM (inactive)
NCI/ADR-RES
  GI50: 9.18 µM (inactive)
SNB-75
  GI50: 9.66 µM (inactive)
EKVX
  GI50: > 10 µM (inactive)
MDA-N
  GI50: > 10 µM (inactive)
NCI-H226
  GI50: > 10 µM (inactive)
UACC-257
  GI50: > 10 µM (inactive)
SK-MEL-5
  GI50: > 10 µM (inactive)
KM12
  GI50: 6.19 µM (inactive)
U-251
  GI50: > 10 µM (inactive)
M14
  GI50: > 10 µM (inactive)
BT-549
  GI50: > 10 µM (inactive)
